Results reported in ChEMBL document CHEMBL1949623, “Camphorsulfonic acid catalysed facile tandem double Friedlander annulation protocol for the synthesis of phenoxy linked bisquinoline derivatives and discovery of antitubercular agents” (Bioorg Med Chem Lett, 2012).
pIC50: −log10 of the molar value.

System: NIH3T3
Assay: Cytotoxicity against mouse NIH/3T3 cells assessed as cell viability after 48 hrs by MTT assay
Format: cell-based
Conditions: NIH3T3, 48 h

SMILES | pIC50
Clc1ccc2nc(-c3ccc(Oc4c(-c5cccc(Br)c5)nc5ccc(Cl)cc5c4-c4ccccc4)cc3)cc(-c3ccccc3)c2c1 | 3.05
Clc1ccc2nc(-c3ccc(Oc4c(-c5ccc(Br)cc5)nc5ccc(Cl)cc5c4-c4ccccc4)cc3)cc(-c3ccccc3)c2c1 | 3.48
